Data published in ChEMBL document CHEMBL1146698, “Phe*-Ala-based pentapeptide mimetics are BACE inhibitors: P2 and P3 SAR” (Bioorg Med Chem Lett, 2004).

Columns and labels:
Beta-secretase 2 = biological target: T1, Beta-secretase 2 (Homo sapiens, UniProt Q9Y5Z0); test: Selectivity tested against Beta-secretase 2 (BACE) in human
T1 sequence (Q9Y5Z0 whole entry): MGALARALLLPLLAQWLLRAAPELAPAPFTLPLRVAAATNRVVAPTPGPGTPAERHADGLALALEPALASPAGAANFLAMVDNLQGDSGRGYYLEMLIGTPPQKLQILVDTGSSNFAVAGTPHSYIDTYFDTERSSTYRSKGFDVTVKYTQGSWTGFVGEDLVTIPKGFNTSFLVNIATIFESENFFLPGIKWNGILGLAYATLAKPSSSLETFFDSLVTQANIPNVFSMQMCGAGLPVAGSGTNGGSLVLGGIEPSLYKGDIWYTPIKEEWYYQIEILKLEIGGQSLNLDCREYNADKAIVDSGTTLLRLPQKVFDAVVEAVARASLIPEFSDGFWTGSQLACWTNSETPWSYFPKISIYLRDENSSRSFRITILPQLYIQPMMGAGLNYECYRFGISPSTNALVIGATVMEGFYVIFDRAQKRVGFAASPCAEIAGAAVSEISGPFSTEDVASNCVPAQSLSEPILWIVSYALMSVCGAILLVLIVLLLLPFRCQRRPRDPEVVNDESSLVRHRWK

HEK293 = test: In vitro inhibitory activity against beta-amyloid peptide (Abeta) in HEK293/APP751swe cells; assay type: functional, cell-based; details: Homo sapiens
Beta-secretase 1 = Beta-secretase 1 (Homo sapiens, UniProt P56817); test: In vitro inhibition of Beta-secretase-1 in HEK293 (Human Embryonic Kidney) cell line.; assay type: cell-based
Beta-secretase 1, sequence (P56817 whole entry): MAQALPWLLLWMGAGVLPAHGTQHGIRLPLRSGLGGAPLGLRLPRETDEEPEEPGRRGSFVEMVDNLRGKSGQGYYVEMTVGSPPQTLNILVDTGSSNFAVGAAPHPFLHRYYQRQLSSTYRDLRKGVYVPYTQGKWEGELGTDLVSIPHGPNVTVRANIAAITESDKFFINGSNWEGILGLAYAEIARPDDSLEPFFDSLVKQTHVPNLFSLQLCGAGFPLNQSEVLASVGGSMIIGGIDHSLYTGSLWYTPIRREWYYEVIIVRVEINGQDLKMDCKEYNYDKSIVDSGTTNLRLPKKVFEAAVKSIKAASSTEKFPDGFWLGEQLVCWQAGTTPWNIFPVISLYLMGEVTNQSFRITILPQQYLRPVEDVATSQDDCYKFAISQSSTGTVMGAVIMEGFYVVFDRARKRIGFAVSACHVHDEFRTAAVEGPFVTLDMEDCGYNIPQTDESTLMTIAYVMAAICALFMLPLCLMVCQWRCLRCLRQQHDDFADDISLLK

Compound	IC50 (Beta-secretase 2) [nM]	IC50 (HEK293) [nM]	IC50 (Beta-secretase 1) [nM]
CSCC[C@H](NC(=O)[C@@H](NC(=O)OC(C)(C)C)C(C)C)C(=O)N[C@@H](CC(C)C)[C@@H](O)C[C@@H](C)C(=O)N[C@H](C(=O)NCc1ccccc1)C(C)C	500		
CSCC[C@H](NC(=O)[C@@H](NC(=O)OC(C)(C)C)C(C)C)C(=O)N[C@@H](Cc1ccccc1)[C@@H](O)C[C@@H](C)C(=O)N[C@H](C(=O)NCc1ccccc1)C(C)C		22000	28
CC[C@@H](C)[C@H](NC(=O)OC(C)(C)C)C(=O)N[C@@H](C)C(=O)N[C@@H](Cc1ccccc1)[C@@H](O)CC(C)C(=O)NC(C(=O)NCc1ccncc1)C(C)C (single isomer, unassigned)		410	42
CC(C[C@H](O)[C@H](Cc1ccccc1)NC(=O)C(C)NC(=O)[C@@H](NC(=O)OC(C)(C)C)C(C)C)C(=O)NC(C(=O)NCc1ccncc1)C(C)C (single isomer, unassigned)		48000	1060
CC(C[C@H](O)[C@H](Cc1ccccc1)NC(=O)[C@H](C)NC(=O)[C@H](CCCC(F)(F)F)NC(=O)OC(C)(C)C)C(=O)NC(C(=O)NCc1ccncc1)C(C)C (single isomer, unassigned)		13400	419
CC(C)C[C@H](NC(=O)OC(C)(C)C)C(=O)N[C@@H](C)C(=O)N[C@@H](Cc1ccccc1)[C@@H](O)CC(C)C(=O)NC(C(=O)NCc1ccncc1)C(C)C (single isomer, unassigned)		860	63
CSCC[C@H](NC(=O)[C@@H](NC(=O)OC(C)(C)C)C(C)C)C(=O)N[C@@H](Cc1ccccc1)[C@@H](O)CC(C)C(=O)NC(C(=O)NCc1ccncc1)C(C)C (single isomer, unassigned)		1700	70
COCC[C@H](NC(=O)[C@@H](NC(=O)OC(C)(C)C)C(C)C)C(=O)N[C@@H](Cc1ccccc1)[C@@H](O)CC(C)C(=O)NC(C(=O)NCc1ccncc1)C(C)C (single isomer, unassigned)		2900	127
CC[C@H](NC(=O)OC(C)(C)C)C(=O)N[C@@H](C)C(=O)N[C@@H](Cc1ccccc1)[C@@H](O)CC(C)C(=O)NC(C(=O)NCc1ccncc1)C(C)C (single isomer, unassigned)		2800	75
CCC[C@H](NC(=O)OC(C)(C)C)C(=O)N[C@@H](C)C(=O)N[C@@H](Cc1ccccc1)[C@@H](O)CC(C)C(=O)NC(C(=O)NCc1ccncc1)C(C)C (single isomer, unassigned)		1400	41
CCC[C@H](NC(=O)OC(C)(C)C)C(=O)N[C@@H](CCSC)C(=O)N[C@@H](Cc1ccccc1)[C@@H](O)CC(C)C(=O)NC(C(=O)NCc1ccncc1)C(C)C (single isomer, unassigned)		990	60
CC(C[C@H](O)[C@H](Cc1ccccc1)NC(=O)[C@H](C)NC(=O)[C@H](CN(C)C)NC(=O)OC(C)(C)C)C(=O)NC(C(=O)NCc1ccncc1)C(C)C (single isomer, unassigned)			2530
CC(C[C@H](O)[C@H](Cc1ccccc1)NC(=O)[C@H](C)NC(=O)[C@H](CC(F)F)NC(=O)OC(C)(C)C)C(=O)NC(C(=O)NCc1ccncc1)C(C)C (single isomer, unassigned)		400	45
CC(C[C@H](O)[C@H](Cc1ccccc1)NC(=O)[C@H](C)NC(=O)[C@H](CCN(C)C)NC(=O)OC(C)(C)C)C(=O)NC(C(=O)NCc1ccncc1)C(C)C (single isomer, unassigned)			89000
CC(C[C@H](O)[C@H](Cc1ccccc1)NC(=O)[C@H](C)NC(=O)[C@@H](NC(=O)OC(C)(C)C)C(C)C)C(=O)NC(C(=O)NCc1ccncc1)C(C)C (single isomer, unassigned)		2100	82
COCC[C@H](NC(=O)OC(C)(C)C)C(=O)N[C@@H](C)C(=O)N[C@@H](Cc1ccccc1)[C@@H](O)CC(C)C(=O)NC(C(=O)NCc1ccncc1)C(C)C (single isomer, unassigned)			705
COC[C@H](NC(=O)OC(C)(C)C)C(=O)N[C@@H](C)C(=O)N[C@@H](Cc1ccccc1)[C@@H](O)CC(C)C(=O)NC(C(=O)NCc1ccncc1)C(C)C (single isomer, unassigned)		4990	118
CC(C[C@H](O)[C@H](Cc1ccccc1)NC(=O)[C@H](C)NC(=O)[C@H](CC(F)(F)C(F)F)NC(=O)OC(C)(C)C)C(=O)NC(C(=O)NCc1ccncc1)C(C)C (single isomer, unassigned)		1620	281
